According to patent US8133998B2, “Bicyclic pyrimidine derivatives as calcium channel blockers” (Zalicus Pharmaceuticals, Ltd., priority 2007, dated 2012):

Tests used:
[1] = molecular target: T1, human α1H T-type channels (Homo sapiens, UniProt O95180); test: T-type calcium channel block, whole cell patch clamp in HEK cells; assay type: cell-based; details: HEK cells stably expressing human α1H; measured at 1 μM drug; mainly non-inactivated protocol
T1 construct: expressed in transfected cells; host or cells: HEK 293
T1 sequence (O95180 whole entry): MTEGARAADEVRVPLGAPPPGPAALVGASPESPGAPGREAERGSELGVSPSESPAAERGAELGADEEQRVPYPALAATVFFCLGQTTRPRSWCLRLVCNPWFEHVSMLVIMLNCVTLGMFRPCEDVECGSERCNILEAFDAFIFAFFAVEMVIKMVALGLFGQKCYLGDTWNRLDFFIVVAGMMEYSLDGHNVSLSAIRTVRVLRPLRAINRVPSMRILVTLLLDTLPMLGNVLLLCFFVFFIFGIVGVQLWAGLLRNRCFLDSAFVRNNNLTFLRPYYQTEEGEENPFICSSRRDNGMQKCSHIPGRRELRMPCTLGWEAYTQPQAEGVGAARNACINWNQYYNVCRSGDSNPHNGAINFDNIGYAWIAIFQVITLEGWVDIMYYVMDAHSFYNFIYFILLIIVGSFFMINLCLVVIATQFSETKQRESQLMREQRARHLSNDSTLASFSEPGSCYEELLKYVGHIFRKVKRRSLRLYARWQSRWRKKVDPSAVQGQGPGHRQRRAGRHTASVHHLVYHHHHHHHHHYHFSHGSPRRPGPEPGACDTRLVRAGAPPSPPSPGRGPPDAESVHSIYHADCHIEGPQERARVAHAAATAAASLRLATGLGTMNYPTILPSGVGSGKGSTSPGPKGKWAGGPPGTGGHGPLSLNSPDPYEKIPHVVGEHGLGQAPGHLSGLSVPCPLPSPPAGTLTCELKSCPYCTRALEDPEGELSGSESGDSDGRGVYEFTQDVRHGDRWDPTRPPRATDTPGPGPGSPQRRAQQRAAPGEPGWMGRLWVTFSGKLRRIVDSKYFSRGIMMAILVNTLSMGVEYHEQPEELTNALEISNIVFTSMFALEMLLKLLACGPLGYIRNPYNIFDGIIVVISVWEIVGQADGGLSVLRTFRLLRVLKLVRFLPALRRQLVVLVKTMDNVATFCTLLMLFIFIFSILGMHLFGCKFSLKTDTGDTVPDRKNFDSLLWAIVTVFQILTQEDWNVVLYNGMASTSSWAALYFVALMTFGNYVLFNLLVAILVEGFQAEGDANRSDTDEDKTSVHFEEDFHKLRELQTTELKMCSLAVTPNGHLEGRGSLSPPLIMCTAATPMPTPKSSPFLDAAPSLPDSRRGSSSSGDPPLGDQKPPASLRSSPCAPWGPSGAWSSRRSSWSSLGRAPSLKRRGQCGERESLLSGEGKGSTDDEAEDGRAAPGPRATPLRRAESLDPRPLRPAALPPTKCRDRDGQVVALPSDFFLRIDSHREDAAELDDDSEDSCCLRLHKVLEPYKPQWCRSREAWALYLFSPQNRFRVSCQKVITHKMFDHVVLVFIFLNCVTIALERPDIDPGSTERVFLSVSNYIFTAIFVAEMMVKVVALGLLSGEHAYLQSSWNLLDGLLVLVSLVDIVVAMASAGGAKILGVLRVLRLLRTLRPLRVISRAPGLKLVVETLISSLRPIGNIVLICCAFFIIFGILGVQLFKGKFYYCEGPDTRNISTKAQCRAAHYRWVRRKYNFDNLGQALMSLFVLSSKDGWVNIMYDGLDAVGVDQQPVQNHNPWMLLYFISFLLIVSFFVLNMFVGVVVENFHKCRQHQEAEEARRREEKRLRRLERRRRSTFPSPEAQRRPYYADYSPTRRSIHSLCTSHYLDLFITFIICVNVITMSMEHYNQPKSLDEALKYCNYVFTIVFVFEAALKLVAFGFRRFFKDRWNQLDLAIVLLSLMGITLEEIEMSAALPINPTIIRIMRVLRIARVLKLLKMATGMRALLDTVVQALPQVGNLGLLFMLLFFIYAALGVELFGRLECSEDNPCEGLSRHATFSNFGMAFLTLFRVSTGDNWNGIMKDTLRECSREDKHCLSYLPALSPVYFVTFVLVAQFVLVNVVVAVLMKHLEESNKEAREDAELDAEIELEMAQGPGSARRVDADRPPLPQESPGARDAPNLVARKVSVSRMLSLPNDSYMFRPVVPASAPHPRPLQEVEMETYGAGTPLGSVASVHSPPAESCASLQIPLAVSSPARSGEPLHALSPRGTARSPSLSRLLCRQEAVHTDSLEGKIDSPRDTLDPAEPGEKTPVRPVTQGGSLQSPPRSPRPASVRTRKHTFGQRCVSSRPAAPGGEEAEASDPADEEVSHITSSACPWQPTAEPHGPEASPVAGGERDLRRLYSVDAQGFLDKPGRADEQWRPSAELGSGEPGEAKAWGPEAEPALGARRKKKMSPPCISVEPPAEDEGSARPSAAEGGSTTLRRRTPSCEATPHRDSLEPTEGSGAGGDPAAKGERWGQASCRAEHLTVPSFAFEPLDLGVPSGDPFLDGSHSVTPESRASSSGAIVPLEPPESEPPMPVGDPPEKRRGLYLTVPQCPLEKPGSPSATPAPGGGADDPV
Protocol: (§1) T-type calcium channel blocking activity was assayed in human embryonic kidney cells, HEK 293, stably transfected with the T-type calcium channel subunits. Briefly, cells were cultured in Dulbecco's modified eagle medium (DMEM) supplemented with 10% fetal bovine serum, 200 U/ml penicillin and 0.2 mg/ml streptomycin at 37° C. with 5% CO2. At 85% confluency cells were split with 0.25% trypsin/1 mM EDTA and plated at 10% confluency on glass coverslips. At 12 hours the medium was replaced and the cells stably transfected using a standard calcium phosphate protocol and the appropriate calcium channel cDNA's. Fresh DMEM was supplied and the cells transferred to 28° C./5% CO2. Cells were incubated for 1 to 2 days prior to whole cell recording.
(§2) Standard patch-clamp techniques were employed to identify blockers of T-type currents. Briefly, previously described HEK cell lines stably expressing human α1G, α1H and α1I T-type channels were used for all the recordings (passage #: 4-20, 37° C., 5% CO2). Whole cell patch clamp experiments were performed using an Axopatch 200B amplifier (Axon Instruments, Burlingame, Calif.) linked to a personal computer equipped with pCLAMP software. Data were analyzed using Clampfit (Axon Instruments) and SigmaPlot 4.0 (Jandel Scientific). To obtain T-type currents, plastic dishes containing semi-confluent cells were positioned on the stage of a ZEISS AXIOVERT S100 microscope after replacing the culture medium with external solution (see below). Whole-cell patches were obtained using pipettes (borosilicate glass with filament, O.D.: 1.5 mm, I.D.: 0.86 mm, 10 cm length), fabricated on a SUTTER P-97 puller with resistance values of ˜5 MΩ (see below for internal solution).
(§3) In the non-inactivating protocol, the holding potential is set at −110 mV and with a pre-pulse at −100 mV for 1 second prior to the test pulse at −40 mV for 50 ms. In the inactivation protocol, the pre-pulse is at approximately −85 mV for 1 second, which inactivates about 15% of the T-type channels.
(§4) Test compounds were dissolved in external solution, 0.1-0.01% DMSO. After ˜10 min rest, they were applied by gravity close to the cell using a WPI microfil tubing. The “non-inactivated” pre-pulse was used to examine the resting block of a compound. The “inactivated” protocol was employed to study voltage-dependent block. However, the initial data shown below were mainly obtained using the non-inactivated protocol only. Kd values are shown for various compounds of the invention in Table 4 measured at 1 μM for the drug of interest except for compound 18 which was measured at 200 nM.

[2] = molecular target: T2, human α1G T-type channels (Homo sapiens, UniProt O43497); test: as above; assay type: cell-based; details: HEK cells stably expressing human α1G; measured at 1 μM drug; mainly non-inactivated protocol
T2 construct: expressed in transfected cells; host or cells: HEK 293
Protocol: as §1, §2, §3, §4

[3] = molecular target: T3, human α1I T-type channels (Homo sapiens, UniProt Q9P0X4); test: as above; assay type: cell-based; details: HEK cells stably expressing human α1I; measured at 1 μM drug; mainly non-inactivated protocol
T3 construct: expressed in transfected cells; host or cells: HEK 293
T3 sequence (Q9P0X4 whole entry): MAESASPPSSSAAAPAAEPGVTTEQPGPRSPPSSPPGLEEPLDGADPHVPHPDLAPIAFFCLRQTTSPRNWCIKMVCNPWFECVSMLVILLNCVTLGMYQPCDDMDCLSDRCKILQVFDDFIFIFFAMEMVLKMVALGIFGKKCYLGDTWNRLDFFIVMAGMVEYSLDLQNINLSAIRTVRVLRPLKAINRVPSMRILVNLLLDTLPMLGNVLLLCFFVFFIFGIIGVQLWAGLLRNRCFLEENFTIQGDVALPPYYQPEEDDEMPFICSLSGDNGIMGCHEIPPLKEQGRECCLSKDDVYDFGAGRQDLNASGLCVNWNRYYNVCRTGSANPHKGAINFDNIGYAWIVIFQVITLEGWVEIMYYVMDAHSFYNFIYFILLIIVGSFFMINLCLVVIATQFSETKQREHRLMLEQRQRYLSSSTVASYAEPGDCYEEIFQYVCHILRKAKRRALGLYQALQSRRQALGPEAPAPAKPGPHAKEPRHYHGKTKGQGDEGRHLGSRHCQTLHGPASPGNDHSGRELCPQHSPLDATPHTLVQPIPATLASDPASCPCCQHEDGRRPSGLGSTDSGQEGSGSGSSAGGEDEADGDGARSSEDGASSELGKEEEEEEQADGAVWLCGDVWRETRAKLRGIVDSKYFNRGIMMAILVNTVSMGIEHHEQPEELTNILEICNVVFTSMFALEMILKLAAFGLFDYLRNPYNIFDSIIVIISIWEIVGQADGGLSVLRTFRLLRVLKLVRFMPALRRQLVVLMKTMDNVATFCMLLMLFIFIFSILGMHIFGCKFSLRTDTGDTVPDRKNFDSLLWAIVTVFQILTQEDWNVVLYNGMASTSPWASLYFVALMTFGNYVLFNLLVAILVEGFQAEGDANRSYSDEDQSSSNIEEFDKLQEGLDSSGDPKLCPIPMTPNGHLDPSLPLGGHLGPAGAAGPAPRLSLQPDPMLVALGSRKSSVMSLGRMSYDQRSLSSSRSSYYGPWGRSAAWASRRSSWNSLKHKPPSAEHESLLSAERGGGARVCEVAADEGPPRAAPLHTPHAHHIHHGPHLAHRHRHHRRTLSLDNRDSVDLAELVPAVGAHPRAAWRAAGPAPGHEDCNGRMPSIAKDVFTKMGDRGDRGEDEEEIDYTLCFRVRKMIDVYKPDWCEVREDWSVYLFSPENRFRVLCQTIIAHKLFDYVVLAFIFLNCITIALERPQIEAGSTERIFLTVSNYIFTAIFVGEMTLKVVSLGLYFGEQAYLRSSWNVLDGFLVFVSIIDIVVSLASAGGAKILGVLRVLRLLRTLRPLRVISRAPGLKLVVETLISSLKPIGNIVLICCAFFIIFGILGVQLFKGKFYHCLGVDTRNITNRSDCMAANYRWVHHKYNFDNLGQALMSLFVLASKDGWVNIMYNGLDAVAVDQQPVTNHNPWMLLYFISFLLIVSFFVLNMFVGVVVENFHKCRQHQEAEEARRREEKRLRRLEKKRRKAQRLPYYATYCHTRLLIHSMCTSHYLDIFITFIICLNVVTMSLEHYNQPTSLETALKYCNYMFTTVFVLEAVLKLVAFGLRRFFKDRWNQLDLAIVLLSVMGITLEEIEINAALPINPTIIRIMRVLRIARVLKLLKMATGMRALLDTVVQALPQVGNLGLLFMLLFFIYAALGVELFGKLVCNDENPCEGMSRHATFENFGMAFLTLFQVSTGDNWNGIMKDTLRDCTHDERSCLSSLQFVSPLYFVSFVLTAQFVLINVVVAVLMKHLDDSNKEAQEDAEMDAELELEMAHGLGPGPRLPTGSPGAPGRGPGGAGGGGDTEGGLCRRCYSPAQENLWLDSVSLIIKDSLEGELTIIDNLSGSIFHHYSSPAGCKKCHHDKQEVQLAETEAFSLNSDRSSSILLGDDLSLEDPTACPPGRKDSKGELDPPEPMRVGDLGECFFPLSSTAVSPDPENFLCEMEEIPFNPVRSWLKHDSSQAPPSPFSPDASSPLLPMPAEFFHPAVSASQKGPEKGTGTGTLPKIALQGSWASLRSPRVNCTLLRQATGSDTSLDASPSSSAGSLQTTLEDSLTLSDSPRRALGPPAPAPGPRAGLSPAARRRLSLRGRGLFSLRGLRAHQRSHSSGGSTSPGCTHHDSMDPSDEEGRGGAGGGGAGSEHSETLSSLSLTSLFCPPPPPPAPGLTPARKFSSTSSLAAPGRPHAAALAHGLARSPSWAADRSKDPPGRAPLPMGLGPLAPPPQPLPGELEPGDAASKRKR
Protocol: as §1, §2, §3, §4

[4] = tested on: T-type over L-type channels; details: cited from earlier work
[5] = tested on: spinal nerve ligation model of neuropathic pain; details: rats; cited from earlier work

Kd [1] [nM]	Kd [2] [nM]	Kd [3] [nM]	SMILES	selective for T-type over L-type channels [4]	anti-hyperalgesic activity in the spinal nerve ligation model of neuropathic pain [5]
350	16500	5130	Cc1c(C(=O)N2CCN(c3ccccc3)CC2)sc2ncn(C(C)C(=O)NC3CCCCC3)c(=O)c12 (stereo not drawn) [Compound 33, N-cyclohexyl-2-(5-methyl-4-oxo-6-(4-phenylpiperazine-1-carbonyl)thieno[2,3-d]pyrimidin-3(4H)-yl)propanamide]		
170	300	3290	Cc1c(C(=O)N2CCN(c3cccc(Cl)c3)CC2)sc2ncn(CC(=O)NC3CCCC3)c(=O)c12 [Compound 37, 2-(6-(4-(3-chlorophenyl)piperazine-1-carbonyl)-5-methyl-4-oxothieno[2,3-d]pyrimidin-3(4H)-yl)-N-cyclopentylacetamide]		
100	100	2140	Cc1c(C(=O)N2CCN(c3ccc(Cl)c(C(F)(F)F)c3)CC2)sc2ncn(CC(=O)NC3CCCC3)c(=O)c12 [Compound 38, 2-(6-(4-(4-chloro-3-(trifluoromethyl)phenyl)piperazine-1-carbonyl)-5-methyl-4-oxothieno[2,3-d]pyrimidin-3(4H)-yl)-N-cyclopentylacetamide]		
280	570	3840	Cc1c(C(=O)N2CCN(c3ccc(Cl)cc3)CC2)sc2ncn(CC(=O)NC3CCCC3)c(=O)c12 [Compound 42, 2-(6-(4-(4-chlorophenyl)piperazine-1-carbonyl)-5-methyl-4-oxothieno[2,3-d]pyrimidin-3(4H)-yl)-N-cyclopentylacetamide]		
350	1010	8790	Cc1c(C(=O)N2CCN(c3ccccc3)CC2)sc2ncn(CC(=O)Nc3ccccc3)c(=O)c12 [Compound 52, 2-(5-methyl-4-oxo-6-(4-phenylpiperazine-1-carbonyl)thieno[2,3-d]pyrimidin-3(4H)-yl)-N-phenylacetamide]		
1040	190	580	Cc1c(C(=O)N2CCN(c3cc(C(F)(F)F)cc(C(F)(F)F)c3)CC2)sc2ncn(CC(=O)Nc3ccccc3)c(=O)c12 [Compound 53, 2-(6-(4-(3,5-bis(trifluoromethyl)phenyl)piperazine-1-carbonyl)-5-methyl-4-oxothieno[2,3-d]pyrimidin-3(4H)-yl)-N-phenylacetamide]		
380	240	> 950	Cc1c(C(=O)N2CCN(c3ccccc3)CC2)sc2ncn(CC(=O)Nc3cc(F)cc(F)c3)c(=O)c12 [Compound 55, 2-(6-(4-phenylpiperazine-1-carbonyl)-5-methyl-4-oxothieno[2,3-d]pyrimidin-3(4H)-yl)-N-(3,5-difluorophenyl)acetamide]		
800	290	340	Cc1c(C(=O)N2CCN(c3ccccc3F)CC2)sc2ncn(CC(=O)Nc3cccc(C(F)(F)F)c3)c(=O)c12 [Compound 62, 2-(6-(4-(2-fluorophenyl)piperazine-1-carbonyl)-5-methyl-4-oxothieno[2,3-d]pyrimidin-3(4H)-yl)-N-(3-(trifluoromethyl)phenyl)acetamide]		
700	200	80	Cc1c(C(=O)N2CCN(c3ccccc3F)CC2)sc2ncn(CC(=O)Nc3cc(C(F)(F)F)cc(C(F)(F)F)c3)c(=O)c12 [Compound 64, N-(3,5-bis(trifluoromethyl)phenyl)-2-(6-(4-(2-fluorophenyl)piperazine-1-carbonyl)-5-methyl-4-oxothieno[2,3-d]pyrimidin-3(4H)-yl)acetamide]		
7590	350	1040	CNC(=O)c1sc2ncn(CC(=O)Nc3cc(C(F)(F)F)cc(C(F)(F)F)c3)c(=O)c2c1C [Compound 66, 3-(2-(3,5-bis(trifluoromethyl)phenylamino)-2-oxoethyl)-N,5-dimethyl-4-oxo-3,4-dihydrothieno[2,3-d]pyrimidine-6-carboxamide]		
2730	230	710	Cc1c(C(=O)N2CCCCC2)sc2ncn(CC(=O)Nc3cc(C(F)(F)F)cc(C(F)(F)F)c3)c(=O)c12 [Compound 69, N-(3,5-bis(trifluoromethyl)phenyl)-2-(5-methyl-4-oxo-6-(piperidine-1-carbonyl)thieno[2,3-d]pyrimidin-3(4H)-yl)acetamide]		
220	1460	8800	Cc1c(C(=O)N2CCN(c3cccc(Cl)c3)CC2)sc2ncn(CC(=O)N3CCCC3)c(=O)c12 [Compound 73, 6-(4-(3-chlorophenyl)piperazine-1-carbonyl)-5-methyl-3-(2-oxo-2-(pyrrolidin-1-yl)ethyl)thieno[2,3-d]pyrimidin-4(3H)-one]		
330	9900	1380	Cc1c(C(=O)N2CCN(c3ccc(Cl)c(Cl)c3)CC2)sc2ncn(CC(=O)N3CCCC3)c(=O)c12 [Compound 135, 6-(4-(3,4-dichlorophenyl)piperazine-1-carbonyl)-5-methyl-3-(2-oxo-2-(pyrrolidin-1-yl)ethyl)thieno[2,3-d]pyri-midin-4(3H)-one]		
180	360	4990	Cc1c(C(=O)N2CCN(c3cccc(Cl)c3)CC2)sc2ncn(CC(=O)Nc3ccc(F)cc3F)c(=O)c12 [Compound 140, 2-(6-(4-(3-chlorophenyl)piperazine-1-carbonyl)-5-methyl-4-oxothieno[2,3-d]pyrimidin-3(4H)-yl)-N-(2,4 difluorophenyl)acetamide]		
			COCC(=O)O[C@]1(CCN(C)CCCc2nc3ccccc3[nH]2)CCc2cc(F)ccc2[C@@H]1C(C)C [Mibefradil]	10-30 fold	anti-hyperalgesic activity
			CCC1(C)CC(=O)NC1=O (stereo not drawn) [ethosuximide]		anti-hyperalgesic activity
